Laboratory results taken from patent US20230301885A1, “NOVEL USE” (DSM IP ASSETS B.V., priority 2020, published 2023).

Experiments:
M. globosa = test: Microbiome balance model, sebaceous skin mixture: M. globosa; assay type: cell-based, Malassezia globosa; conditions: 4 h at 37° C.
Procedure: (§1) Thus, in particular the term ‘by not unproportionally affecting the growth of anyone thereof’ refers to a balancing of at least two, preferably all dry skin or sebaceous skin microbes as defined herein in the mutual presence thereof, wherein only small changes in the difference in the (individual) shares of the microbes compared to the corresponding shares of the control are observed. Preferably, the small changes in the (individual) share (after 4 h of incubation at 37° C.) is less than ±15%, in particular less than ±10%, most in particular less than ±7.5%, compared to the control. Said change in the share is calculated as: share of the respective microbe within the group of at least two, preferably all microbes of dry or sebaceous skin in the presence of 1,3-PDO [%] minus share of the same microbe within the same group of microbes in the absence of 1,3-PDO [%], both after 4 h of incubation at 37° C. as illustrated in the example.
(§2) The ‘not unproportionally affected growth’ can also be assessed by determining an overall impact value, by • (1) assessing the impact of the ingredient on the individual microbe (i) and assigning an individual impact value x′(i) to said microbe as outlined below: • [formula] • If x(i) is • a) ≤ 0.1 then an integer x′(i) of 1 is assigned (no impact) • b) >0.1 ≤ 0.5then an integer x′(i) of 2 is assigned (slight impact) • c) > 0.5 then an integer x′(i) of 3 is assigned (significant impact), followed by • (2) assessing the overall effect of the ingredient on the respective microbiome by calculating the overall impact value y with formula (II) • [formula] • with n being the total number of microbes in the respective microbiota, wherein a good balancing is characterized by an overall impact value y of less than 2, preferably less than 1.75, most preferably less than 1.7.
(§3) 5 mL of TSB (Tryptic Say Broth) to which no (Ref.1) or 500 µL of 2 wt.-% of 1,3-propanediol (1,3-PDO) in PBS (Phosphate-buffered saline) have been added. Then this solutions have been inoculated by 500 µL of the respective calibrated mixture of the microbes as outlined below. Directly after inoculation and/or after 4 hours of incubation at 37° C., 100 µL have been taken and plated on an Agar gel petri dish. The microbes have then been counted based on the colony specific morphology and/or size.
(§4) All shares have been rounded.

S. epidermidis [1] = test: Microbiome balance model, S. epidermidis/S. aureus co-culture: S. epidermidis; assay type: cell-based, Staphylococcus epidermidis; conditions: co-culture with S. aureus
Procedure: (§5) The term ‘share’ as used herein refers to the share of each (individual) microbe, based on the total number of microbes in the respective group of microbes in % (i.e. the at least two, preferably all dry or sebaceous skin microbes as defined herein, respectively S. epidermidis and ), either before or after inoculation (as indicated). The share is calculated using the colony count of the respective (individual) microbe divided by the sum of the colony counts of all microbes of the respective microbiota * 100%.
as §3, §4

S. capitis = test: Microbiome balance model, sebaceous skin mixture: S. capitis; assay type: cell-based, Staphylococcus capitis; conditions: 4 h at 37° C.
Procedure: as §1, §2, §3, §4

C. acnes = test: Microbiome balance model, sebaceous skin mixture: C. acnes; assay type: cell-based, Cutibacterium acnes; conditions: 4 h at 37° C.
Procedure: as §1, §2, §3, §4

C.simulans = test: Microbiome balance model, sebaceous skin mixture: C. simulans; assay type: cell-based, Corynebacterium simulans; conditions: 4 h at 37° C.
Procedure: as §1, §2, §3, §4

S. aureus = test: Microbiome balance model, S. epidermidis/S. aureus co-culture: S. aureus; assay type: cell-based, Staphylococcus aureus; conditions: co-culture with S. epidermidis
Procedure: as §5, §3, §4

S. epidermidis [2] = test: Microbiome balance model, sebaceous skin mixture: S. epidermidis; assay type: cell-based, Staphylococcus epidermidis; conditions: 4 h at 37° C.
Procedure: as §1, §2, §3, §4

S. mitis = test: Microbiome balance model, sebaceous skin mixture: S. mitis; assay type: cell-based, Streptococcus mitis; conditions: 4 h at 37° C.
Procedure: as §1, §2, §3, §4

[3] = system: microbes of sebaceous skin; test: Microbiome balance model, sebaceous skin mixture: total of all microbes; assay type: cell-based; conditions: 4 h at 37° C.
Procedure: Preferably, the difference in total number of said at least two, preferably all microbes, compared to the respective total number in the absence of 1,3-propanediol (i.e. the control), after 4 h of incubation at 37° C., is within a range of ±50%, preferably ±40%, more preferably ±15%, most preferably ±10%.
as §2, §3, §4

S. hominis = test: Microbiome balance model, sebaceous skin mixture: S. hominis; assay type: cell-based, Staphylococcus hominis; conditions: 4 h at 37° C.
Procedure: as §1, §2, §3, §4

[4] = after 4 hours of incubation at 37° C.
[5] = directly after inoculation, 500 µL of 2 wt.-% in PBS in 5 mL TSB

`CCCC(O)CO` (stereo not shown) [pentylene glycol, 1,2-pentanediol, reference compound] was tested, and the “M. globosa change in share vs control” value (M. globosa) was “+1%^1”, the “M. globosa counts of colony” value (M. globosa) was 830 CFU/ml and the M. globosa share (M. globosa) was 8%. For the same molecule, the “M. globosa valuation, impact value x(i)′” value (M. globosa) was 2^3 (>0.1 ≤ 0.5then an integer x′(i) of 2 is assigned (slight impact)), the “CSE4h counts of colony of S. epidermidis” value (S. epidermidis [1]; [4]) was 3200 CFU/ml and the “CSE4h share of S. epidermidis” value (S. epidermidis [1]; [4]) was 55%. The “CSE0 share of S. epidermidis” value (S. epidermidis [1]; directly after inoculation) was 80%, the “CSE0 counts of colony of S. epidermidis” value (S. epidermidis [1]; [5]) was 1100 CFU/ml and the “S. capitis counts of colony” value (S. capitis) was 1100 CFU/ml. The S. capitis share (S. capitis) was 11%, the “S. capitis valuation, impact value x(i)′” value (S. capitis) was 3^3 (> 0.5 then an integer x′(i) of 3 is assigned (significant impact)) and the “C. acnes change in share vs control” value (C. acnes) was -19.5%^1. The “C. acnes counts of colony” value (C. acnes) was 2000 CFU/ml, the C. acnes share (C. acnes) was 20% and the “C. acnes valuation, impact value x(i)′” value (C. acnes) was 3^3 (> 0.5 then an integer x′(i) of 3 is assigned (significant impact)). For the same molecule, the “C.simulans change in share vs control” value (C.simulans) was -3%^1, the “C.simulans counts of colony” value (C.simulans) was 450 CFU/ml and the C.simulans share (C.simulans) was 4%. The “C.simulans valuation, impact value x(i)′” value (C.simulans) was 2^3 (>0.1 ≤ 0.5then an integer x′(i) of 2 is assigned (slight impact)), the “share of S. aureus, effect in words” value (S. aureus; 4 hours of incubation) was “not reduced” and the “CSA4h counts of colony of S. aureus” value (S. aureus; [4]) was 3900 CFU/ml. For the same molecule, the “CSA4h share of S. aureus” value (S. aureus; [4]) was 45%, the “CSA0 share of S. aureus” value (S. aureus; directly after inoculation) was 20% and the “CSA0 counts of colony of S. aureus” value (S. aureus; [5]) was 280 CFU/ml. The “S. epidermidis change in share vs control” value (S. epidermidis [2]) was “+17%^1”, the “S. epidermidis counts of colony” value (S. epidermidis [2]) was 3300 CFU/ml and the S. epidermidis share (S. epidermidis [2]) was 32%. The “S. epidermidis valuation, impact value x(i)′” value (S. epidermidis [2]) was 3^3 (> 0.5 then an integer x′(i) of 3 is assigned (significant impact)), the “S. mitis change in share vs control” value (S. mitis) was “+0.5%^1” and the “S. mitis counts of colony” value (S. mitis) was 380 CFU/ml. For the same molecule, the S. mitis share (S. mitis) was 4%, the “S. mitis valuation, impact value x(i)′” value (S. mitis) was 2^3 (>0.1 ≤ 0.5then an integer x′(i) of 2 is assigned (slight impact)) and the “Change of total CFU/ml vs control” value [3] was “+2.60%^2”. For the same molecule, the “Total counts of colony” value [3] was 10160 CFU/ml, the Total share [3] was 100% and the “overall impact value y” value [3] was 2.4^4. For the same molecule, the “share of the microbes of sebaceous skin, effect in words” value ([3]; in contrast to 1,3-propanediol) was “alter the share of the microbes of sebaceous skin to a greater extend”, the “S. hominis counts of colony” value (S. hominis) was 2100 CFU/ml and the S. hominis share (S. hominis) was 21%. The “S. hominis valuation, impact value x(i)′” value (S. hominis) was 2^3 (>0.1 ≤ 0.5then an integer x′(i) of 2 is assigned (slight impact)).
